Measurements as given in PubChem BioAssay AID651630 (Sanford-Burnham Center for Chemical Genomics, 2012).
The source made the active and inactive calls.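 The calls were made as follows: active = lipid-stain IC50 at or below a set limit, with nuclear-stain toxicity IC50 at least five times higher; inactive = the rest.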

Tests used:
[1] = test system: DAPI; experiment: TAG lipid buildup inhibition with viability readout – cell-based, panel, Nile Red and DAPI fluorescence, H9c2, dose response (AID 651630); conditions: H9c2 cells, DAPI nuclear fluorescence (cytotoxicity counter-readout), oleic acid;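 also: cells exposed to compound overnight before fixation and staining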
[2] = test system: TAG; experiment: as above; conditions: H9c2 cells, Nile Red TAG fluorescence, oleic acid

Compound | IC50 cytotoxicity (DAPI nuclear signal decrease) ([1]; mean of runs) | IC50 cytotoxicity (DAPI nuclear signal decrease) ([1]; run 1) | IC50 cytotoxicity (DAPI nuclear signal decrease) ([1]; run 2) | IC50 ([2]; mean of runs) | IC50 ([2]; run 1) | IC50 ([2]; run 2)
NC(=O)c1cccc(-c2ccnc3c2CC(C(=O)NCc2ccccc2)O3)c1 (stereo not drawn) | > 25 µM (inactive) | > 25 µM | > 25 µM | > 25 µM (inactive) | > 25 µM | > 25 µM
COc1cccc(/C=C/C(=C2/C(=O)N(c3ccccc3)N=C2C)c2ccc(C)cc2)c1OC |  | > 25 µM | > 25 µM | 1.63 µM | 1.64 µM | 1.61 µM
COc1cc(-c2cc3nc(NCCOc4ccccc4)ccn3n2)cc(OC)c1OC | > 25 µM (inactive) | > 25 µM | > 25 µM | 18.9 µM (inactive) | 16.7 µM | 21.2 µM
OC1CC2CCC(C1)N2CCCN1c2ccccc2Sc2ccc(Cl)cc21 (stereo not drawn) |  | 19.4 µM | > 25 µM |  | 10.3 µM | > 25 µM
CC(C)(C)N1C(=O)[C@H]2[C@@H](c3ccc(Br)cc3)N3C(=O)N(c4ccc(Br)cc4)C(=O)[C@@]3(Cc3ccccc3)[C@H]2C1=O | > 25 µM (inactive) | > 25 µM | > 25 µM | 17.2 µM (inactive) | 18.3 µM | 16 µM
COC(=O)c1ccc(/C=C/c2c(-c3ccsc3)oc3ccc(N4CCOCC4)cc23)cc1 | > 25 µM (inactive) | > 25 µM | > 25 µM | 16.9 µM (inactive) | 25 µM | 8.72 µM
C[C@H](O)[C@@H]1CN2CCc3c([nH]c4ccc(-c5ccc6c(c5)OCO6)cc34)[C@@H]2C[C@@H]1N(C)C(=O)Nc1cc(Cl)cc(Cl)c1 | > 25 µM (inactive) | > 25 µM | > 25 µM | 18.2 µM (inactive) | 11.9 µM | 24.5 µM
CCOc1ccccc1NC(=O)C1CCN(C(=O)NCc2ccccc2)CC1 | > 25 µM (inactive) | > 25 µM | > 25 µM | > 25 µM (inactive) | > 25 µM | > 25 µM
CCN(CC)CCn1c(SCC(=O)Nc2cccc(OC)c2)nc2c(sc3ccccc32)c1=O | > 25 µM (inactive) | > 25 µM | > 25 µM | 13.7 µM | 16.7 µM | 10.6 µM
COc1ccc(-c2ccc3[nH]c4c(c3c2)CCN2C[C@@H]([C@H](C)OC(=O)Nc3cc(Cl)cc(Cl)c3)[C@@H](N(C)C(=O)Nc3cc(Cl)cc(Cl)c3)C[C@@H]42)cc1 | > 25 µM (inactive) | > 25 µM | > 25 µM | 11.6 µM | 9.42 µM | 13.9 µM
CC(C)C[C@H]1CNC(=S)N1CC1CCCN1C[C@H](CC(C)C)N1C[C@H](CC(C)C)N(CCc2ccccc2)C1=S (stereo partly drawn) | > 25 µM (inactive) | > 25 µM | > 25 µM | 14.4 µM | 15.3 µM | 13.4 µM
CCC(C)(C)NC(=O)C(c1ccc(OC)cc1)N(Cc1ccco1)C(=O)CCC(=O)Nc1cc(C)on1 (stereo not drawn) | > 25 µM (inactive) | > 25 µM | > 25 µM | 17.9 µM (inactive) | 21.1 µM | 14.7 µM
CCOC(=O)c1ccc(NC(=O)c2nc[nH]c2C(=O)NCCCCNC(=O)c2[nH]cnc2C(=O)Nc2ccc(C(=O)OCC)cc2)cc1 |  | > 25 µM | > 25 µM | 3.89 µM | 3.09 µM | 4.69 µM
COc1ccc(-c2cc(C(F)F)n3ncc(C(=O)Nc4cccc(S(=O)(=O)N5CCOCC5)c4)c3n2)cc1 | > 25 µM (inactive) | > 25 µM | > 25 µM | 13.9 µM | 17.5 µM | 10.4 µM
CS(=O)(=O)c1ccc(C(=O)OCC(=O)N2CCOCC2)cc1[N+](=O)[O-] | > 25 µM (inactive) | > 25 µM | > 25 µM | > 25 µM (inactive) | > 25 µM | > 25 µM
COc1ccccc1Nc1nnc(SCC(=O)Nc2nc(-c3ccc(F)cc3)cs2)s1 | > 25 µM (inactive) | > 25 µM | > 25 µM | > 25 µM (inactive) | > 25 µM | > 25 µM
COc1ccc(Nc2cc(=O)oc3ccccc23)cc1 | > 25 µM (inactive) | > 25 µM | > 25 µM | > 25 µM (inactive) | > 25 µM | > 25 µM
